In patent publication US20020072601A1, “Method for forming amino acid derivatives from tricyclic diketopiperazines” (University of Southern Mississippi, priority 2000, published 2002):

Assay: Gelation studies: minimum concentration needed for solvent gelation
Assay type: physicochemical
Details: cooled to room temperature
Procedure: The ring-opening reaction of PyDKP with certain nucleophiles (Reaction 3) forms a class of pyroglutamate derivatives that gel organic solvents. In these experiments, the solubility and minimum concentration needed for solvent gelation were determined. Tetradecyl pyroglutamide was placed in various solvents which were then heated to their boiling point, except silicone and soybean oil, which were heated to 150° C. to prevent decomposition of the gelator. In most cases, regardless of partial insolubility in some instances, the various solvents formed immobile gels upon cooling to room temperature. All of the gels were thermoreversible, meaning the gel would revert back to liquid with the application of heat and then reform with cooling.

## CCCCCCCCCCCCCCNC(=O)[C@@H]1CCC(=O)N1 [N-tetradecyl pyroglutamide, N-Pyroglutamyl tetradecylamine]
1-Propanol
  gel Concentration: 50 g/L
Acetonitrile
  gel Concentration: 15 g/L
Benzene
  gel Concentration: 100 g/L
Butanol
  gel Concentration: 100 g/L
Chloroform
  gel Concentration: 160 g/L
Dichioromethane
  gel Concentration: 50 g/L
Ethanol
  gel Concentration: 30 g/L
Methanol
  gel Concentration: 30 g/L
Silicone Oil
  gel Concentration: 11 g/L
Soybean Oil
  gel Concentration: 11 g/L
